Source: patent publication US7041636B1, “Composition for counteracting hair loss” (priority 2004, dated 2006)

System: dandruff
Assay: dandruff removal trials, topical application before shampooing
Format: in vivo
Details: series of trials on subjects; applied twenty minutes before shampooing
Text: The author of the present inventions has engaged in research, and experimentation in the field of hair care products for a number of years. As a dandruff treatment, they investigated the use of polysorbate 80, procured from the Nourishair Company in the form of a thick gel. […] Based on this experience, they used the product on a number of subjects over a period of ten years. For antiseptic purposes and tactile response, they subsequently decided to add an amount of menthol to the polysorbate 80.

Substance	dandruff removal
polysorbate 60	worked well
polysorbate 80	worked well
